Columns and labels:
[1] = system: wheat (Triticum aestivum, variety TRISO); test: Root growth assay, seed treatment, wheat; type: in vivo; settings: Root Growth of 100 is set as the standard, wet root weight 16 (±2) days post treatment
Excerpt: (§1) Plant roots are a highly proliferative tissue that allows an easy accessible, cheap and short term screening method for plant growth regulators. The results obtained can easily be transferred to the overall effects on a plant of plant growth regulators identified by such a system. By using this root assay one is enabled to determine the effect of a seed treatment to root growth and/or germination and/or changes in habitat of germinated plants in order to identify the possible use as a yield enhancer. Two seeds of wheat (Triticum aestivum, variety “TRISO”) or 1 seed of maize (Zea mays, variety “LORENZO”) per hole in a plastic tray which contains an architecture of 8×13 holes were placed on compost soil covered with sand. These seeds were treated with 100 μl/hole, which creates an application volume of approx. 1200 l/ha, of a compound solution at active ingredient rates equivalent to 100, 10 and 1 g a.i./ha of each compound using an robotic application system (Lizzy Spray Robotics). Six replicates in a row of each compound and concentration were done. The outer rim of the above defined plastic tray was untreated to avoid false negative effects and the middle row (No. 7) was used as untreated control. The treated seeds were allowed to dry for approx. 4 hours and subsequently covered with sand and watered. The trays were stored in climate chambers with 14 hours lighting at a temperature of 24° C. (±2) at daytime and 16° C. (±2) at night and relative humidity (rH) of 60% and daily watered. Assessments were done 16 (±2) days post treatment by counting the germinated plants and assessing the phytotoxicity symptoms and percentage. In addition, the roots were washed out and the shoots were cut directly above the seed and the wet roots were placed on dry paper towels for approximately 30 minutes and weighted afterwards. This procedure provides a similar grade of moisture to the roots so that a comparison of the weights is possible.
(§2) The effects observed concerning Root Growth given in column 2 (Root Growth of “100” is set as the standard) are directed to concentrations that are equivalent to 100, 10, 1 g a.i./ha, each.

[2] = system: maize (Zea mays, variety LORENZO); test: Root growth assay, seed treatment, maize; type: in vivo; settings: Root Growth of 100 is set as the standard, wet root weight 16 (±2) days post treatment
Excerpt: as §1, §2

melting point	Structure (SMILES)	Root Growth ([1]; 1 g a.i./ha)	Root Growth ([1]; 10 g a.i./ha)	Root Growth ([1]; 100 g a.i./ha)	Root Growth ([2]; 1 g a.i./ha)	Root Growth ([2]; 10 g a.i./ha)	Root Growth ([2]; 100 g a.i./ha)
187 °C	O=C1NC(=O)C(c2ccccc2)=C1Nc1cccc(Cl)c1 [Compound 1.1, 3-(3-Chlorophenylamino)-4-phenylpyrrole-2,5-dione]	–	–	–	–	–	–
–	Cc1ccc(NC2=C(c3ccc(Br)cc3)C(=O)NC2=O)cc1Cl [Compound 1.16]	84	171	129	113	112	158
–	O=C1NC(=O)C(c2c(Cl)cccc2Cl)=C1Nc1cccc(Cl)c1 [Compound 1.20]	–	–	–	142	114	125
–	O=C1NC(=O)C(c2ccccc2C(F)(F)F)=C1Nc1ccc(O)c(Cl)c1 [Compound 1.8]	–	–	–	114	144	123
–	CN(C)CCCn1cc(C2=C(c3c[nH]c4ccccc34)C(=O)NC2=O)c2ccccc21 [Compound 8]	122	150	123	109	150	93
–	Cn1cc(C2=C(c3c4n(c5ccccc35)CCC(CN)C4)C(=O)NC2=O)c2ccccc21 (stereo not drawn) [Compound 12]	126	150	141	–	–	–
–	O=C1NC(=O)C(c2ccc(Cl)cc2)=C1Nc1ccc(O)c(C(=O)O)c1 [Compound 1.12]	–	–	–	122	172	199
–	Cn1cc(C2=C(c3cn(CCCN)c4ccccc34)C(=O)NC2=O)c2ccccc21 [Compound 11]	162	169	135	–	–	–
–	O=C1NC(=O)C(c2ccc(Cl)cc2)=C1Nc1ccc(C(=O)O)cc1 [Compound 1.19]	148	183	91	–	–	–
206 °C	O=C1NC(=O)C(c2ccccc2)=C1Nc1ccc(OC(F)(F)F)cc1 [Compound 1.6, 3-Phenyl-4-(4-trifluoromethoxyphenylamino)pyrrole-2,5-dione]	–	–	–	–	–	–
–	O=C1NC(=O)C(c2cc(Cl)sc2Cl)=C1Nc1ccc(O)c(Cl)c1 [Compound 1.10]	101	134	77	–	–	–
242 °C	O=C1NC(=O)C(c2ccccc2)=C1Nc1ccc(Cl)c(Cl)c1 [Compound 1.2, 3-(3,4-dichlorophenylamino)-4-phenylpyrrole-2,5-dione]	–	–	–	130	117	141
–	O=C1NC(=O)C(c2c[nH]c3ccccc23)=C1c1c[nH]c2ccccc12 [Compound 1, 3,4-Di-(1H-indol-3-yl)pyrrole-2,5-dione]	69	129	133	–	–	–
